Earlier results, collected in paper PMC8305651 (International Journal of Molecular Sciences, 2021).

Settings: cited from earlier work

## O=c1cc(-c2ccc(O)c(O)c2)oc2cc(O)cc(O)c12 [luteolin]
  bioavailability: low bioavailability
